According to patent US12435044B2, “Pyridazinone herbicides and pyridazinone intermediates used to prepare a herbicide” (FMC Corporation, priority 2018, dated 2025):

Legend:
Format in all cases: in vivo
[1] = tested on: barnyardgrass (Echinochloa crus-galli); assay: Test F flooded paddy test; conditions: Flood, after 21 d
From the text: (§1) Three plastic pots (ca. 16-cm diameter) per rate were partially filled with sterilized Tama silt loam soil comprising a 35:50:15 ratio of sand, silt and clay and 2.6% organic matter. Separate plantings for each of the three pots were as follows. Seeds from the U.S. of monochoria (Monochoria vaginalis), sedge, umbrella (small-flower umbrella sedge, Cyperus difformis) and redstem (purple redstem, Ammannia coccinea), were planted into one 16-cm pot for each rate. Seeds from the U.S. of rice flatsedge (Cyperus iria), sprangletop, Brdd. (bearded sprangletop, Leptochloa fascicularis), one stand of 9 or 10 water seeded rice seedlings (Rice, W. S. Jap, Oryza sativa cv. ‘Japonica-M202’ or Rice, W. S. Ind, ‘Indica’), and two stands of 3 or 4 transplanted rice seedlings (Oryza sativa cv. ‘Japonica-M202’) were planted into one 16-cm pot for each rate. Seeds from the U.S. of barnyardgrass (Echinochloa crus-galli), and late watergrass (Echinochloa oryzicola) were planted into one 16-cm pot for each rate.
(§2) Plantings were sequential so that crop and weed species were at the 2.0 to 2.5-leaf stage at time of treatment.
(§3) Potted plants were grown in a greenhouse with day/night temperature settings of 30/27° C., and supplemental balanced lighting was provided to maintain a 16-hour photoperiod. Test pots were maintained in the greenhouse until test completion.
(§4) At time of treatment, test pots were flooded to 3 cm above the soil surface, treated by application of test compounds directly to the paddy water, and then maintained at that water depth for the duration of the test. Effects of treatments on rice and weeds were visually evaluated by comparison to untreated controls after 21 d. Plant response ratings, summarized in Table F, are based on a scale of 0 to 100 where 0 is no effect and 100 is complete control. A dash (-) response means no test result.

[2] = tested on: transplanted rice seedlings (Oryza sativa cv. ‘Japonica-M202’); assay: Test F flooded paddy test; conditions: Flood, after 21 d
From the text: as §1, §2, §3, §4

[3] = tested on: monochoria (Monochoria vaginalis); assay: Test F flooded paddy test; conditions: Flood, after 21 d
From the text: as §1, §2, §3, §4

[4] = tested on: late watergrass (Echinochloa oryzicola); assay: Test F flooded paddy test; conditions: Flood, after 21 d
From the text: as §1, §2, §3, §4

[5] = tested on: water seeded rice seedlings (Rice, W. S. Jap, Oryza sativa cv. ‘Japonica-M202’ or Rice, W. S. Ind, ‘Indica’); assay: Test F flooded paddy test; conditions: Flood, after 21 d
From the text: as §1, §2, §3, §4

[6] = tested on: chamomile (scentless chamomile, Matricaria inodora); assay: Test D postemergence controlled growth environment test
From the text: Seeds of plant species selected from blackgrass (Alopecurus myosuroides), galium (catchweed bedstraw, Galium aparine), kochia (Kochia scoparia), oilseed rape (Brassica napus), barley, spring (Hordeum vulgare), wheat, spring (Triticum aestivum), oat, wild (Avena fatua), barley, winter (Hordeum vulgare) and wheat, winter (Triticum aestivum) were planted into a silt loam soil and treated preemergence with test chemicals formulated in a non-phytotoxic solvent mixture which included a surfactant.
At the same time, plants selected from these crop and weed species and also bluegrass (annual bluegrass, Poa annua), canarygrass (littleseed canarygrass, Phalaris minor), chickweed (common chickweed, Stellaria media), bromegrass, downy (downy bromegrass, Bromus tectorum), field poppy (Papaver rhoeas), field violet (Viola arvensis), foxtail, green (Setaria viridis), deadnettle (henbit deadnettle, Lamium amplexicaule), ryegrass, Italian (Lolium multiflorum), lambsquarters (Chenopodium album), pigweed (Amaranthus retroflexus), chamomile (scentless chamomile, Matricaria inodora), Russian thistle (Salsola kali), speedwell (bird's-eye speedwell, Veronica persica), buckwheat, wild (Polygonum convolvulus), mustard, wild (Sinapis arvensis), radish, wild (Raphanus raphanistrum), windgrass (Apera spica-venti), geranium, cutleaf (Geranium dissectum) and Canada thistle (Cirsium arvense) were planted in pots containing Redi-Earth® planting medium (Scotts Company, 14111 Scottslawn Road, Marysville, Ohio 43041) comprising spaghnum peat moss, vermiculite, wetting agent and starter nutrients and treated with postemergence applications of the test chemicals formulated in the same manner. Plants ranged in height from 2 to 18 cm (1- to 4-leaf stage). Treated plants and controls were maintained in a controlled growth environment for 14 to 21 d after which time all species were compared to controls and visually evaluated. Plant response ratings, summarized in Table D, are based on a scale of 0 to 100 where 0 is no effect and 100 is complete control. A dash (-) response means no test result.

[7] = tested on: field violet (Viola arvensis); assay: Test C postemergence greenhouse test; conditions: scale 0 to 100
Summary of the method: (§5)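 Seeds sown in silt loam soil and sprayed preemergence with test chemicals in a non-phytotoxic solvent mixture containing surfactant. Postemergence plants, 2 to 18 cm (1- to 4-leaf stage), grown in peat/vermiculite planting medium and treated with the same formulation. Visual injury rated 0–100 versus untreated controls after 13 to 21 d in the greenhouse.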

[8] = tested on: cutleaf geranium (Geranium dissectum); assay: Test C postemergence greenhouse test; conditions: scale 0 to 100
Summary of the method: as §5

SMILES | Plant response rating (0 to 100 scale) ([1]; 125 g ai/ha) | Plant response rating (0 to 100 scale) ([2]; 125 g ai/ha) | Plant response rating (0 to 100 scale) ([3]; 125 g ai/ha) | Plant response rating (0 to 100 scale) ([4]; 125 g ai/ha) | Plant response rating (0 to 100 scale) ([5]; 125 g ai/ha) | Plant response rating, Chamomile ([6]; 16 g ai/ha) | Plant response rating, Chamomile ([6]; 31 g ai/ha) | Plant response rating, Chamomile ([6]; 62 g ai/ha) | Plant response rating, Chamomile ([6]; 125 g ai/ha) | Plant response rating, Field Violet ([7]; 16 g ai/ha) | Plant response rating, Field Violet ([7]; 31 g ai/ha) | Plant response rating, Field Violet ([7]; 62 g ai/ha) | Plant response rating, Field Violet ([7]; 125 g ai/ha) | Plant response rating, Cutleaf Geranium ([8]; 16 g ai/ha) | Plant response rating, Cutleaf Geranium ([8]; 31 g ai/ha) | Plant response rating, Cutleaf Geranium ([8]; 62 g ai/ha) | Plant response rating, Cutleaf Geranium ([8]; 125 g ai/ha) | further results
Cc1ccc2ccc(C)c(-c3c(O)c(Cl)nn(C)c3=O)c2c1 [Cpd. No. 20, 6-chloro-4-(2,7-dimethyl-1-naphthalenyl)-5-hydroxy-2-methyl-3(2H)-pyridazinone] | 43 | 0 | 95 | 50 | 5 | 95 | 98 | 100 | 100 |  |  |  |  |  |  |  |  | Plant response rating (0 to 100 scale) ([1]; 31 g ai/ha): 0; Plant response rating (0 to 100 scale) ([1]; 62 g ai/ha): 0; Plant response rating (0 to 100 scale) ([1]; 250 g ai/ha): 65; Plant response rating (0 to 100 scale) ([2]; 31 g ai/ha): 0; Plant response rating (0 to 100 scale) ([2]; 62 g ai/ha): 0; Plant response rating (0 to 100 scale) ([2]; 250 g ai/ha): 0; Plant response rating (0 to 100 scale) ([3]; 31 g ai/ha): 10; Plant response rating (0 to 100 scale) ([3]; 62 g ai/ha): 90; Plant response rating (0 to 100 scale) ([3]; 250 g ai/ha): 99; Plant response rating (0 to 100 scale) ([4]; 31 g ai/ha): 0; Plant response rating (0 to 100 scale) ([4]; 62 g ai/ha): 35; Plant response rating (0 to 100 scale) ([4]; 250 g ai/ha): 73; Plant response rating (0 to 100 scale) ([5]; 31 g ai/ha): 0; Plant response rating (0 to 100 scale) ([5]; 62 g ai/ha): 0; Plant response rating (0 to 100 scale) ([5]; 250 g ai/ha): 23
Cc1ccc2ccc(Cl)cc2c1-c1c(O)c(Cl)nn(C)c1=O [Cpd. No. 22] |  |  |  |  |  |  |  |  |  | 60 | 70 | 75 | 80 | 70 | 80 | 85 | 85 | 
Cc1cc(Cl)c2ccccc2c1-c1c(O)c(Cl)nn(C)c1=O [Cpd. No. 65] | 60 | 15 | 100 | 55 | 0 | 99 | 100 | 100 | 100 | 70 | 80 | 85 | 85 | 85 | 90 | 95 | 95 | Plant response rating (0 to 100 scale) ([1]; 64 g ai/ha): 10; Plant response rating (0 to 100 scale) ([2]; 64 g ai/ha): 0; Plant response rating (0 to 100 scale) ([3]; 64 g ai/ha): 100; Plant response rating (0 to 100 scale) ([4]; 64 g ai/ha): 20; Plant response rating (0 to 100 scale) ([5]; 64 g ai/ha): 0
